The values below come from patent US20240239752A1, “BICYCLIC HETEROAROMATIC INHIBITORS OF KLK5” (BioCryst Pharmaceuticals, Inc., priority 2021, published 2024).

Molecules are shown by their SMILES.

The target of the test is T1, recombinant human KLK5 (Homo sapiens, UniProt Q9Y337).
T1 construct: purchased Novoprotein or R&D Systems C415 or 1108-SE
T1 sequence (Q9Y337 23-293): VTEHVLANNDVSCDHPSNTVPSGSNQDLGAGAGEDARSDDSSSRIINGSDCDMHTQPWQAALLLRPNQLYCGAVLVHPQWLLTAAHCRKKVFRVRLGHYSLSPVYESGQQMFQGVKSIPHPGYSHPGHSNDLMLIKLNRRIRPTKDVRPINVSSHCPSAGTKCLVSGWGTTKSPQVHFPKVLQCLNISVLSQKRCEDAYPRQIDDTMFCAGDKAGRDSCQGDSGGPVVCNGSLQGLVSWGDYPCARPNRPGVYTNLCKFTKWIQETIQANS
The experiment in a line: Kallikrein (KLK) 5 enzymatic assay (Boc-VPR-AMC fluorogenic substrate). The class given is biochemical. To be noted: recombinant human KLK5 0.1 μg/well, Boc-VPR-AMC 100 μM, pH 7.5, room temperature, 1% DMSO; tested a minimum of three times. The source says: Kallikrein-5 (KLK5) is a member of the serine protease family of proteolytic enzymes, confirmed to have trypsin-like activity (Michael I P, et al. Biochemical and enzymatic characterization of human kallikrein 5 (hK5), a novel serine protease potentially involved in cancer progression (J. Biol. Chem. 2005 Apr. 15; 280 (15): 14628-35). Boc-VPR-AMC is a fluorogenic peptide substrate composed of the short peptide chain, Valine-Proline-Arginine (VPR) and the fluorophore, 7-amino-4-methylcoumarin (AMC). KLK5 is able to cleave the fluorogenic peptide substrate Boc-VPR-AMC, releasing the AMC fluorophore, which causes a fluorescent emission in proportion with the enzymatic activity of KLK5. The KLK5 enzymatic activity is monitored by measuring fluorescent emission at wavelengths of 380 nm (excitation) and 460 nm (emission).
The IC50 value of compounds against KLK5 (i.e., the concentration of the compound that inhibits 50% of the enzymatic activity) was calculated according to the procedure reported by R&D systems (Recombinant human KLK5, Catalog Number: 1108-SE), with the exception the pH of the assay was modified from 8.0 to 7.5. Specifically, recombinant human KLK5 (Novoprotein Catalog #C415 or R&D systems Catalog #1108-SE) and fluorogenic peptide Boc-VPR-AMC substrate (R&D Catalog #ES011) were each separately diluted in assay buffer (0.1 M NaH2PO4 buffer, pH 7.5). The compounds of the disclosure were dissolved in DMSO at a concentration of 10 mM. A portion of this stock solution was added to the recombinant human KLK5 solution to provide a desired concentration of the compounds and the mixture was incubated at room temperature. The reaction was initiated by the addition of the fluorogenic peptide substrate at room temperature. The final concentration of recombinant human KLK5 was 0.1 μg/well and the final concentration of the fluorogenic substrate was 100 μM (final volume of 100 μL, 1% DMSO). The assays were performed in 96 well F16 Black Maxisorp Plate (Nunc Catalog #475515). Controls included assay buffer alone and enzyme solutions to which DMSO was added. The reaction rates were measured spectrophotometrically by excitation at 380 nm and emission at 460 nm on a Biotek Synergy H1 plate reader.
The reaction rate for enzyme alone was compared to the reaction rate of enzyme in the presence of compound and the percent inhibition was calculated as shown below:
Percent Inhibition=[Rate with inhibitor/Rate without inhibitor)]×100
An IC50 indicates a compound concentration that inhibits 50% of the enzymatic activity. Compounds were tested a minimum of three times.
One may read the IC50 as the concentration that gives 50% inhibition. Take `CCC(=O)N1CCC2(CC1)CC(Oc1ccccc1CC(=O)O)c1cc(-c3cccc4c(N)nccc34)ccc12` (single isomer, unassigned; (+)) [Compound 385d, (+)-2-(2-((5-(1-aminoisoquinolin-5-yl)-1′-propionyl-2,3-dihydrospiro[indene-1,4′-piperidin]-3-yl)oxy)phenyl)acetic acid]: the IC50 is < 1 µM.

`CCC(=O)N1CCC2(CC1)CC(Oc1ccccc1CC(=O)O)c1cc(-c3cccc4c(N)nccc34)ccc12` (single isomer, unassigned; (-)) [Compound 385e, (−)-2-(2-((5-(1-aminoisoquinolin-5-yl)-1′-propionyl-2,3-dihydrospiro[indene-1,4′-piperidin]-3-yl)oxy)phenyl)acetic acid]: the IC50 is < 1 µM.

As to `COc1ccc(CC(=O)O)c(OCc2c(C)oc3ccc(-c4cccc(C(=N)N)c4)cc23)c1` [7 g, 2-(2-((5-(3-carbamimidoylphenyl)-2-methylbenzofuran-3-yl)methoxy)-4-methoxyphenyl)acetic acid], the IC50 was < 1 µM.

In the case of `CC(C)n1nc(C(=O)Nc2ccccc2C(=O)O)c2cc(-c3cccc(C(=N)N)c3)ccc21` [Compound 1i, 2-(5-(3-carbamimidoylphenyl)-1-isopropyl-1H-indazole-3-carboxamido)benzoic acid], the IC50 lay in the range of 1 to 10 µM.

Regarding `CC(C)n1nc(COc2ccccc2CC(=O)O)c2cc(-c3ccc(C(=N)N)cc3)ccc21` [Compound 2g, 2-(2-((5-(4-carbamimidoylphenyl)-1-isopropyl-1H-indazol-3-yl)methoxy)phenyl)acetic acid], the IC50 was > 10 µM.

On to `CC(C)n1nc(C(=O)Nc2ccccc2C(=O)O)c2cc(-c3ccc(C(=N)N)cc3)ccc21` [Compound 3b, 2-(5-(4-carbamimidoylphenyl)-1-isopropyl-1H-indazole-3-carboxamido)benzoic acid], for which the IC50 was > 10 µM.

Consider `Cn1nc(COc2ccccc2CC(=O)O)c2cc(-c3cccc(C(=N)N)c3)ccc21` [Compound 4e, 2-(2-((5-(3-carbamimidoylphenyl)-1-methyl-1H-indazol-3-yl)methoxy)phenyl)acetic acid], for which the half-inhibitory concentration (IC50) was < 1 µM.

`COc1ccc(CC(=O)O)c(OCc2nn(C(C)C)c3ccc(-c4cccc(C(=N)N)c4)cc23)c1` [Compound 5e, 2-(2-((5-(3-carbamimidoylphenyl)-1-isopropyl-1H-indazol-3-yl)methoxy)-4-methoxyphenyl)acetic acid]: the IC50 is < 1 µM.

With `CC(C)n1nc(COc2ccccc2CC(=O)O)c2cc(-c3cccc(C(=N)N)c3)ccc21` [Compound 6b, 2-(2-((5-(3-carbamimidoylphenyl)-1-isopropyl-1H-indazol-3-yl)methoxy)phenyl)acetic acid], the IC50 is < 1 µM.

Turning to `Nc1nccc2c(-c3ccc4nn(C5CCOC5)c(COc5ccccc5CC(=O)O)c4c3)cccc12` (centres unmarked) [Compound 8g, 2-(2-((5-(1-aminoisoquinolin-5-yl)-2-(tetrahydrofuran-3-yl)-2H-indazol-3-yl)methoxy)phenyl)acetic acid], the IC50 is < 1 µM.

Consider `CC1CC(n2nc(COc3ccccc3CC(=O)O)c3cc(-c4ccc5ccnc(N)c5c4)ccc32)C1` (centres unmarked) [Compound 9j, 2-(2-((5-(1-aminoisoquinolin-7-yl)-1-(3-methylcyclobutyl)-1H-indazol-3-yl)methoxy)phenyl)acetic acid], for which the IC50 was < 1 µM.

As to `CC(C)(C)OC(=O)N1CC(n2nc(COc3ccccc3CC(=O)O)c3cc(-c4ccc5ccnc(N)c5c4)ccc32)C1` [Compound 10e, 2-(2-((5-(1-aminoisoquinolin-7-yl)-1-(1-(tert-butoxycarbonyl)azetidin-3-yl)-1H-indazol-3-yl)methoxy)phenyl)acetic acid], the IC50 is < 1 µM.

For `Nc1nccc2ccc(-c3ccc4c(c3)c(COc3ccccc3CC(=O)O)nn4C3CC(F)(F)C3)cc12` [Compound 11e, 2-(2-((5-(1-aminoisoquinolin-7-yl)-1-(3,3-difluorocyclobutyl)-1H-indazol-3-yl)methoxy)phenyl)acetic acid], the IC50 was < 1 µM.

Turning to `Nc1nccc2ccc(-c3ccc4nc(C5CC5)cc(COc5ccccc5CC(=O)O)c4c3)cc12` [Compound 12e, 2-(2-((6-(1-aminoisoquinolin-7-yl)-2-cyclopropylquinolin-4-yl)methoxy)phenyl)acetic acid], the 50% inhibitory concentration (IC50) was > 10 µM.

For `COc1ccc(CC(=O)O)c(OCc2c3cc(-c4ccc5ccnc(N)c5c4)ccc3nn2C2CCOC2)c1` (centres unmarked) [Compound 13c, 2-(2-((5-(1-aminoisoquinolin-7-yl)-2-(tetrahydrofuran-3-yl)-2H-indazol-3-yl)methoxy)-4-methoxyphenyl)acetic acid], the concentration for half-maximal inhibition (IC50) was 1 to 10 µM.

`COC(=O)Cc1ccc(OC)cc1OCc1c2cc(-c3ccc4ccnc(N)c4c3)ccc2nn1C1CCOC1` (centres unmarked) [Compound 13d, methyl 2-(2-((5-(1-aminoisoquinolin-7-yl)-2-(tetrahydrofuran-3-yl)-2H-indazol-3-yl)methoxy)-4-methoxyphenyl)acetate]: the IC50 is > 10 µM.

As to `Nc1nccc2c(-c3ccc4nn(C5CCCCC5)c(COc5ccccc5CC(=O)O)c4c3)cccc12` [Compound 14f, 2-(2-((5-(1-aminoisoquinolin-5-yl)-2-cyclohexyl-2H-indazol-3-yl)methoxy)phenyl)acetic acid], the IC50 fell in the range of 1 to 10 µM.

With `Cc1ccc(CC(=O)O)c(OCc2c3cc(-c4ccc5ccnc(N)c5c4)ccc3nn2C2CCCCC2)c1` [Compound 15d, 2-(2-((5-(1-aminoisoquinolin-7-yl)-2-cyclohexyl-2H-indazol-3-yl)methoxy)-4-methylphenyl)acetic acid], the half-inhibitory concentration (IC50) is > 10 µM.

Consider `COc1ccc(CC(=O)O)c(OCc2c3cc(-c4ccc5ccnc(N)c5c4)ccc3nn2C2CCCCC2)c1` [Compound 16c, 2-(2-((5-(1-aminoisoquinolin-7-yl)-2-cyclohexyl-2H-indazol-3-yl)methoxy)-4-methoxyphenyl)acetic acid], for which the half-inhibitory concentration (IC50) lay within 1 to 10 µM.

`Cc1ccc(CC(=O)O)c(OCc2c3cc(-c4ccc5ccnc(N)c5c4)ccc3nn2C2CCC2)c1` [Compound 17e, 2-(2-((5-(1-aminoisoquinolin-7-yl)-2-cyclobutyl-2H-indazol-3-yl)methoxy)-4-methylphenyl)acetic acid]: the IC50 is > 10 µM.

Consider `Cc1ccc(CC(=O)O)c(OCc2c3cc(-c4cccc5c(N)nccc45)ccc3nn2C2CCC2)c1` [Compound 18c, 2-(2-((5-(1-aminoisoquinolin-5-yl)-2-cyclobutyl-2H-indazol-3-yl)methoxy)-4-methylphenyl)acetic acid], for which the IC50 was 1 to 10 µM.

Regarding `COc1ccc(CC(=O)O)c(OCc2c3cc(-c4cccc5c(N)nccc45)ccc3nn2C2CCC2)c1` [Compound 19c, 2-(2-((5-(1-aminoisoquinolin-5-yl)-2-cyclobutyl-2H-indazol-3-yl)methoxy)-4-methoxyphenyl)acetic acid], the concentration for half-maximal inhibition (IC50) lay in the range of 1 to 10 µM.

For `COc1ccc(CC(=O)O)c(OCc2c3cc(-c4ccc5ccnc(N)c5c4)ccc3nn2C2CCC2)c1` [Compound 20b, 2-(2-((5-(1-aminoisoquinolin-7-yl)-2-cyclobutyl-2H-indazol-3-yl)methoxy)-4-methoxyphenyl)acetic acid], the IC50 lay in the range of 1 to 10 µM.

On to `Nc1nccc2c(-c3ccc4nn(C5CCCC5)c(COc5ccccc5CC(=O)O)c4c3)cccc12` [Compound 21e, 2-(2-((5-(1-aminoisoquinolin-5-yl)-2-cyclopentyl-2H-indazol-3-yl)methoxy)phenyl)acetic acid], for which the IC50 is < 1 µM.

For `N=C(N)c1cccc(-c2ccc3nn(C4CCCC4)c(COc4ccccc4CC(=O)O)c3c2)c1` [Compound 22c, 2-(2-((5-(3-carbamimidoylphenyl)-2-cyclopentyl-2H-indazol-3-yl)methoxy)phenyl)acetic acid], the IC50 is < 1 µM.

Regarding `COc1c(-c2ccc3nn(C4CCC4)c(COc4ccccc4CC(=O)O)c3c2)ccnc1C(=N)NO` [Compound 23g, 2-(2-((2-cyclobutyl-5-(2-(N-hydroxycarbamimidoyl)-3-methoxypyridin-4-yl)-2H-indazol-3-yl)methoxy)phenyl)acetic acid], the IC50 was 1 to 10 µM.
